# Measured values reported in patent publication US9121859B2, “Compounds and methods for determination of FKBP-binding immunosuppressant drugs” (Siemens Healthcare Diagnostics Inc., priority 2012, dated 2015).
# Columns and labels:
# [1] = system: monoclonal anti-sirolimus antibody (clone 155-M1); test: Calculated cross-reactivity of releasing agent with antibody of the sirolimus ACMIA assay; assay type: binding; conditions: for Calculated antibody cross-reactivity (percent (%) times 100): sirolimus assay, measured at calibrator of 0 ng/mL, measured value/46.7 μg/mL analog; for Cross-reactivity with the sirolimus assay antibody: result in words
# Experimental: (§1) Preparation of anti-sirolimus antibody-β-galactosidase conjugate. Monoclonal anti-sirolimus antibody (clone 155-M1 from Wyeth Pharmaceutical) was conjugated to β-galactosidase using a standard heterobifunctional SMCC (succinimidyl trans-4-(N-maleimidylmethyl)cyclohexane-1-carboxylate) linker according to known techniques. The antibody conjugate solution contained approximately 7.5 μg/mL anti-sirolimus antibody-β-galactosidase conjugate, 30 mg/mL protease free bovine serum albumin, 0.126 mg/mL MgCl2, 0.03 mL/mL of ethylene glycol, 35.14 mg/mL PIPES 1.5 sodium salt, 50 mg/mL NaCl and beta-gal mutein (inactivated β-galactosidase), pH 6.5.
# (§2) Anti-sirolimus antibody-β-galactosidase conjugate (50 μL) was added next to each of the reaction vessels and the mixture was held for a period of time (10 to 15 minutes) and at a temperature of 43° C. to allow sirolimus, if present, to react with the antibody reagent. Chrome particles with immobilized sirolimus-biotin conjugate to streptavidin-coated chrome particle were added (50 μL) to each of the reaction vessels and were allowed to bind un-bound conjugate. […] The sirolimus-bound conjugate was detected by transferring the supernatant from each of the reaction vessels to a photometric cuvette and measuring the enzymatic rate of the conjugate in the presence of chlorophenol red-β-D-galactopyranoside (CPRG). The rate for each reaction vessel was measured bichromatically at 577 and 700 nm. The results are summarized in Table 1 under the categories: instrument signal observed for calibrators, drug concentration measured in ng/mL, percent (%) displaced vs. SIRO and calculated antibody cross-reactivity (percent (%) times 100). Cross-reactivity was based on the following: • 1) 70 μL of pretreatment reagent solution was added to the reaction medium versus 15 μL of sample, total reaction mixture volume=305 μL. • 2) 10 μg/mL of SIRO analog was in the pretreatment reagent solution. • 3) 10 μg/mL of SIRO analog from pretreatment reagent is equivalent to 46.7 μg/mL of SIRO analog added from sample (Calculation: 70 μL×10 μg/mL/15 μL=46.7 μg/mL) • 4) Measured sirolimus value at 0 ng/mL calibrator. • 5) Measure value/46.7 is % cross-reactivity.
# [2] = system: endogenous specific binding proteins (FKBP) in whole blood; test: ACMIA assay for sirolimus: release of sirolimus from endogenous binding substances in spiked whole blood by releasing agent; conditions: for Drug concentration measured / Percent (%) displaced vs. SIRO: releasing agent 10 μg/mL
# Experimental: (§3) Testing was carried out using the DIMENSION® RxL analyzer, available from Siemens Healthcare Diagnostics Inc., Newark Del. The instrument was employed using ACMIA immunoassay technology. The ACMIA assay method is described in U.S. Pat. Nos. 7,842,475, 7,186,518, 5,147,529, 5,128,103, 5,158,871, 4,661,408, 5,151,348, 5,302,532, 5,422,284, 5,447,870, and 5,434,051, the disclosures of which are incorporated herein in their entirety. In the embodiment of the ACMIA method used herein and discussed in more detail below, competition between tacrolimus analog on chrome particles and tacrolimus in patient samples for antibody for tacrolimus conjugated to an enzyme (the “conjugate”) is utilized to determine the amount of tacrolimus in patient samples. Conjugate that binds to the tacrolimus analog on chrome particles is removed by magnetic separation. The enzymatic activity from the conjugate remaining in the supernatant is measured and is directly proportional to the amount of tacrolimus in the patient sample. […] The enzymatic activity observed when no chrome particle is present is indicative of the total amount of enzymatic activity in the conjugate.
# (§4) Preparation of pretreatment reagent solution. This pretreatment solution was prepared to contain an amount of releasing agent, 6.8 mg/mL PIPES 1.5 sodium salt (buffer), 0.3 mg/mL EDTA disodium (clot prevention agent), 1.0 mg/mL saponin (hemolytic agent), 0.2% PROCLIN® 300 (preservative), 0.024 mg/mL neomycin sulfate (preservative) and 0.99 mg/mL NaN3, pH 6.5. The amount of releasing agent in each of the pretreatment reagent solutions was 10 μg/mL. The releasing agent concentration in the final reaction mixture was equivalent to 46.7 μg/mL of the analog added from the sample.
# Preparation of anti-sirolimus antibody-β-galactosidase conjugate. […] The antibody conjugate solution contained approximately 7.5 μg/mL anti-sirolimus antibody-β-galactosidase conjugate, 30 mg/mL protease free bovine serum albumin, 0.126 mg/mL MgCl2, 0.03 mL/mL of ethylene glycol, 35.14 mg/mL PIPES 1.5 sodium salt, 50 mg/mL NaCl and beta-gal mutein (inactivated β-galactosidase), pH 6.5.
# Magnetic chrome particle preparation. Sirolimus chrome particles (immunoassay solid phase) were prepared by conjugating sirolimus-biotin conjugate to streptavidin-coated chrome particle (prepared in a manner similar to that described in U.S. Pat. No. 7,842,475). The chrome particle reagent contained approximately 2.5 mg/mL sirolimus chrome particle slurry, 60.8 mg/mL trehalose dihydrate and 7.2 mg/mL CARBOWAX®.
# (§5) Preparation of samples. Aliquots of a whole blood pool are spiked with an amount of sirolimus so that the resulting concentration of sirolimus in the whole blood samples in the calibrators is as set forth in Table 1 (0.0, 5.1, 10.1, 20.6 and 31.6 ng/mL). Aliquots of a whole blood pool are spiked with an amount of tacrolimus so that the resulting concentration of […] (0.0, 2.6, 5.3, 11.6 and 30.1 ng/mL).
# (§6) Pretreatment of samples. A set of samples was treated as follows: To each sample was added an amount of the pretreatment reagent solution from above for displacing sirolimus in the sample from endogenous specific binding proteins. The samples were incubated at 37° C. for a period of 140 minutes. Subsequently, each sample was subjected to the aforementioned assay, which is further described below; and signal (mAU) was measured and related to a concentration of analyte that represents the amount of free analyte (analyte that is not bound by endogeneous binding substances plus analyte that was displaced from endogeneous binding substances) in the samples.
# Assay. The ACMIA assay for sirolimus was carried out as follows: 15 μL of a whole blood sample from above was mixed with the pretreatment reagent solution from above (Displacer) (Table 1) in a vessel on the DIMENSION® RxL analyzer.
# [3] = system: endogenous specific binding proteins (FKBP) in whole blood; test: ACMIA assay for tacrolimus: release of tacrolimus from endogenous binding substances in spiked whole blood by releasing agent; conditions: for Drug concentration measured / Percent (%) displaced vs. SIRO: releasing agent 10 μg/mL
# Experimental: as §3, §4
# as §1, with “anti-tacrolimus” for “anti-sirolimus”, “1H6, see for example U.S. Pat. No. 7,078,495) is” for “155-M1 from Wyeth Pharmaceutical) was”, “contains” for “contained”
# The chrome particle reagent contained approximately 2.5 mg/mL tacrolimus chrome particle slurry, 60.8 mg/mL trehalose dihydrate and 7.2 mg/mL CARBOWAX®.
# as §5, §6
# The above format for releasing an analyte (using the concentration of releasing agent (Displacer) shown) and conducting an assay for the analyte was repeated for samples containing tacrolimus.
# [4] = system: monoclonal anti-tacrolimus antibody (clone 1H6); test: Calculated cross-reactivity of releasing agent with antibody of the tacrolimus ACMIA assay; assay type: binding; conditions: measured at calibrator of 0 ng/mL
# Experimental: as §1, with “anti-tacrolimus” for “anti-sirolimus”, “1H6, see for example U.S. Pat. No. 7,078,495) is” for “155-M1 from Wyeth Pharmaceutical) was”, “contains” for “contained”
# as §2, with “reagent.” for “reagent. Chrome particles with immobilized sirolimus-biotin conjugate to streptavidin-coated chrome particle were added (50 μL) to each of the reaction vessels and were allowed to bind un-bound conjugate.”, “cross-reactivity. […]” for “cross-reactivity.”
# [5] = sirolimus assay, result in words
# [6] = sirolimus calibrator 10.1 ng/mL
# [7] = sirolimus calibrator 20.6 ng/mL
# [8] = sirolimus calibrator 31.6 ng/mL
# [9] = tacrolimus assay, result in words
# [10] = tacrolimus calibrator 0.0 ng/mL
# [11] = tacrolimus calibrator 2.6 ng/mL
# [12] = tacrolimus calibrator 5.3 ng/mL
# [13] = tacrolimus calibrator 11.6 ng/mL
# [14] = tacrolimus calibrator 30.1 ng/mL
compound,measurement,setting,value
"C=CC[C@@H]1/C=C(\C)C[C@H](C)C[C@H](OC)[C@H]2O[C@@](O)(C(=O)C(=O)N3CCCC[C@H]3C(=O)O[C@H](/C(C)=C/[C@@H]3CC[C@@H](O)[C@H](OC)C3)[C@H](C)[C@@H](O)CC1=O)[C@H](C)C[C@@H]2OC [Tacro, tacrolimus]",Calculated antibody cross-reactivity (percent (%) times 100),[1],0.00 % × 100
same,Displacement efficiency compared with mixture of V and VI,[2]; [5],lower displacement efficiency
same,Drug concentration measured,[2]; sirolimus calibrator 0.0 ng/mL,-0.1 ng/mL
same,Drug concentration measured,[2]; sirolimus calibrator 5.1 ng/mL,2.6 ng/mL
same,Percent (%) displaced vs. SIRO,[2]; sirolimus calibrator 5.1 ng/mL,52%
same,Drug concentration measured,[2]; [6],4.1 ng/mL
same,Percent (%) displaced vs. SIRO,[2]; [6],40%
same,Drug concentration measured,[2]; [7],7.7 ng/mL
same,Percent (%) displaced vs. SIRO,[2]; [7],38%
same,Drug concentration measured,[2]; [8],13.0 ng/mL
same,Percent (%) displaced vs. SIRO,[2]; [8],41%
"CO[C@H]1C[C@@H]2CC[C@@H](C)[C@@](O)(O2)C(=O)C(=O)N2CCCC[C@H]2C(=O)O[C@H]([C@H](C)C[C@@H]2CC[C@@H](O)[C@H](OC)C2)CC(=O)[C@H](C)/C=C(\C)[C@@H](O)[C@@H](OC)C(=O)[C@H](C)C[C@H](C)CCCCCC1C (stereo partly shown) [XI, hydrogenated sirolimus]",Displacement efficiency compared with mixture of V and VI,[3]; [9],lower displacement efficiency
same,Drug concentration measured,[3]; [10],0.3 ng/mL
same,Drug concentration measured,[3]; [11],1.8 ng/mL
same,Percent (%) displaced vs. SIRO,[3]; [11],68%
same,Drug concentration measured,[3]; [12],2.9 ng/mL
same,Percent (%) displaced vs. SIRO,[3]; [12],54%
same,Drug concentration measured,[3]; [13],5.6 ng/mL
same,Percent (%) displaced vs. SIRO,[3]; [13],48%
same,Drug concentration measured,[3]; [14],16.0 ng/mL
same,Percent (%) displaced vs. SIRO,[3]; [14],53%
same,Cross-reactivity with the sirolimus assay antibody,[1],higher cross-reactivity
same,Calculated antibody cross-reactivity (percent (%) times 100),[1],15.56 % × 100
same,Calculated antibody cross-reactivity (percent (%) times 100),[4],0.06 % × 100
same,Displacement efficiency compared with mixture of V and VI,[2]; [5],lower displacement efficiency
same,Drug concentration measured,[2]; sirolimus calibrator 0.0 ng/mL,72.7 ng/mL
same,Drug concentration measured,[2]; sirolimus calibrator 5.1 ng/mL,82.5 ng/mL
same,Percent (%) displaced vs. SIRO,[2]; sirolimus calibrator 5.1 ng/mL,1622%
same,Drug concentration measured,[2]; [6],96.4 ng/mL
same,Percent (%) displaced vs. SIRO,[2]; [6],951%
same,Drug concentration measured,[2]; [7],94.0 ng/mL
same,Percent (%) displaced vs. SIRO,[2]; [7],458%
same,Drug concentration measured,[2]; [8],85.2 ng/mL
same,Percent (%) displaced vs. SIRO,[2]; [8],269%
"Diels-Alder adducts of 4-phenyl-1,2,4-triazoline-3,5-dione (PTAD) and sirolimus [Mixture V + VI]",Suitability as releasing agent for tacrolimus analyte,[3]; [9],suitable as a releasing agents
same,Drug concentration measured,[3]; [10],0.6 ng/mL
same,Drug concentration measured,[3]; [11],2.9 ng/mL
same,Percent (%) displaced vs. SIRO,[3]; [11],111%
same,Drug concentration measured,[3]; [12],4.7 ng/mL
same,Percent (%) displaced vs. SIRO,[3]; [12],89%
same,Drug concentration measured,[3]; [13],9.5 ng/mL
same,Percent (%) displaced vs. SIRO,[3]; [13],82%
same,Drug concentration measured,[3]; [14],23.5 ng/mL
same,Percent (%) displaced vs. SIRO,[3]; [14],78%
same,Calculated antibody cross-reactivity (percent (%) times 100),[1],0.29 % × 100
same,Calculated antibody cross-reactivity (percent (%) times 100),[4],0.13 % × 100
same,Suitability as releasing agent for sirolimus analyte,[2]; [5],suitable as a releasing agents
same,Drug concentration measured,[2]; sirolimus calibrator 0.0 ng/mL,1.4 ng/mL
same,Drug concentration measured,[2]; sirolimus calibrator 5.1 ng/mL,5.8 ng/mL
same,Percent (%) displaced vs. SIRO,[2]; sirolimus calibrator 5.1 ng/mL,114%
same,Drug concentration measured,[2]; [6],9.7 ng/mL
same,Percent (%) displaced vs. SIRO,[2]; [6],96%
same,Drug concentration measured,[2]; [7],16.8 ng/mL
same,Percent (%) displaced vs. SIRO,[2]; [7],82%
same,Drug concentration measured,[2]; [8],27.5 ng/mL
same,Percent (%) displaced vs. SIRO,[2]; [8],87%
Diels-Alder adducts of diethyl azidodicarboxylate (DAC) and sirolimus [Mixture IX + X],Displacement efficiency compared with mixture of V and VI,[3]; [9],lower displacement efficiency
same,Drug concentration measured,[3]; [10],0.0 ng/mL
same,Drug concentration measured,[3]; [11],2.4 ng/mL
same,Percent (%) displaced vs. SIRO,[3]; [11],90%
same,Drug concentration measured,[3]; [12],4.1 ng/mL
same,Percent (%) displaced vs. SIRO,[3]; [12],78%
same,Drug concentration measured,[3]; [13],9.2 ng/mL
same,Percent (%) displaced vs. SIRO,[3]; [13],79%
same,Drug concentration measured,[3]; [14],22.6 ng/mL
same,Percent (%) displaced vs. SIRO,[3]; [14],75%
same,Cross-reactivity with the sirolimus assay antibody,[1],higher cross-reactivity
same,Calculated antibody cross-reactivity (percent (%) times 100),[1],14.82 % × 100
same,Calculated antibody cross-reactivity (percent (%) times 100),[4],0.01 % × 100
same,Displacement efficiency compared with mixture of V and VI,[2]; [5],lower displacement efficiency
same,Drug concentration measured,[2]; sirolimus calibrator 0.0 ng/mL,69.2 ng/mL
same,Drug concentration measured,[2]; sirolimus calibrator 5.1 ng/mL,93.8 ng/mL
same,Percent (%) displaced vs. SIRO,[2]; sirolimus calibrator 5.1 ng/mL,1844%
same,Drug concentration measured,[2]; [6],100.7 ng/mL
same,Percent (%) displaced vs. SIRO,[2]; [6],994%
same,Drug concentration measured,[2]; [7],119.9 ng/mL
same,Percent (%) displaced vs. SIRO,[2]; [7],584%
same,Drug concentration measured,[2]; [8],113.0 ng/mL
same,Percent (%) displaced vs. SIRO,[2]; [8],357%
